Among the test systems are A498 renal; CAKI-1 renal; IGROV1 ovarian; MCF7 breast; OVCAR-3 ovarian; OVCAR-5 ovarian; PC-3 prostate; SF-268 CNS; SK-MEL-28 melanoma; SW-620 colon.
Common to all, as to experiment: NCI anticancer screen, dose series, 48 h

Molecules are shown by their SMILES.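 Five compound concentrations were applied to cells in 96-well plates for 48 hours; endpoints were derived by simple linear interpolation of the resulting dose-response curve. GI50 marks 50% less growth. TGI is the concentration that stops growth completely.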

`COc1ccc2c(c1)CCc1[nH]nc(-c3cc(OC)c(OC)c(OC)c3)c1-2`: the GI50 with A498 renal is less than 0.01 µM; with CAKI-1 renal, less than 0.01 µM; in the assay on IGROV1 ovarian it was less than 0.01 µM; with MCF7 breast, less than 0.01 µM; in the assay on OVCAR-3 ovarian it was less than 0.01 µM; in the assay with OVCAR-5 ovarian, 0.242 µM. Besides, the GI50 is less than 0.01 µM with PC-3 prostate, less than 0.01 µM with SF-268 CNS, 1.62 µM in the assay with SK-MEL-28 melanoma and less than 0.01 µM in the assay with SW-620 colon. Also, the TGI in the assay on A498 renal is less than 0.01 µM; with CAKI-1 renal, 24.8 µM; in the assay with IGROV1 ovarian it was 23.7 µM; with MCF7 breast it was 12.9 µM; with OVCAR-3 ovarian, 14.7 µM; in the assay with OVCAR-5 ovarian it was 38.8 µM. Besides, the TGI in the assay on PC-3 prostate was 17.8 µM; in the assay on SF-268 CNS it was 26.8 µM; in the assay on SK-MEL-28 melanoma it was 21.7 µM; with SW-620 colon, 14.5 µM.

In the case of `Cc1cccc(Cl)c1NC(=O)c1cnc(Nc2cc(N3CCOCC3)cc(N3CCOCC3)c2)s1`, the GI50 in the assay on A498 renal was 0.0248 µM; with CAKI-1 renal, 0.00467 µM; in the assay with IGROV1 ovarian it was 0.00355 µM; in the assay with MCF7 breast, more than 4.47 µM; in the assay on OVCAR-3 ovarian, 0.0644 µM; in the assay on OVCAR-5 ovarian, 0.0275 µM. Besides, the GI50 with PC-3 prostate is 0.152 µM; with SF-268 CNS it was 0.0626 µM; in the assay with SK-MEL-28 melanoma it was more than 5.32 µM; with SW-620 colon, more than 6.79 µM. In addition, the TGI with A498 renal was 0.473 µM; with CAKI-1 renal, 0.0246 µM; in the assay with IGROV1 ovarian, 0.0621 µM; in the assay with MCF7 breast, more than 10 µM; in the assay with OVCAR-3 ovarian, more than 10 µM; in the assay with OVCAR-5 ovarian it was more than 10 µM. Moreover, the TGI in the assay with PC-3 prostate, in the assay on SF-268 CNS, in the assay with SK-MEL-28 melanoma and with SW-620 colon was more than 10 µM each time.

`CCCCOC(=O)c1ccc(NC(=O)CCl)cc1`: the GI50 was 14.1 µM in the assay with A498 renal; 1.6 µM in the assay on IGROV1 ovarian; 2.35 µM with MCF7 breast; 1.7 µM in the assay on OVCAR-3 ovarian; 2.16 µM with OVCAR-5 ovarian; 3.24 µM with PC-3 prostate. For the same compound, the GI50 in the assay on SF-268 CNS was 1.78 µM; with SK-MEL-28 melanoma, 3.87 µM; in the assay on SW-620 colon, 1.59 µM. For the same compound, the TGI was 28.6 µM in the assay on A498 renal; 4.34 µM in the assay on IGROV1 ovarian; 10 µM in the assay on MCF7 breast; 3.3 µM in the assay with OVCAR-3 ovarian; 4.45 µM with OVCAR-5 ovarian; 12.4 µM with PC-3 prostate. The results for the TGI in the assay on SF-268 CNS, in the assay on SK-MEL-28 melanoma and with SW-620 colon were 4.05 µM, 13.6 µM and 3.38 µM, respectively.

For `CC(=O)OCc1ccc(O)c(C=O)c1`, the TGI in the assay with CAKI-1 renal, in the assay with IGROV1 ovarian, in the assay on MCF7 breast, in the assay with OVCAR-3 ovarian, in the assay with OVCAR-5 ovarian and in the assay on PC-3 prostate was more than 100 µM throughout. Besides, the TGI in the assay on SF-268 CNS, in the assay on SK-MEL-28 melanoma and in the assay with SW-620 colon was more than 100 µM each time.

As to `COc1ccc2nc(NCN3C(=O)c4ccccc4C3=O)sc2c1`, the TGI in the assay on A498 renal, with IGROV1 ovarian, in the assay with MCF7 breast, with OVCAR-3 ovarian, with OVCAR-5 ovarian and in the assay on PC-3 prostate was more than 100 µM throughout. Moreover, the TGI in the assay with SF-268 CNS, in the assay with SK-MEL-28 melanoma and with SW-620 colon was more than 100 µM in each case.

With `CN1CCN(C(=O)c2c(NC(=O)NS(=O)(=O)c3ccccc3)sc3c2CCCCC3)CC1`, the GI50 in the assay on A498 renal is 28.8 µM; in the assay with CAKI-1 renal, 20.3 µM; in the assay on IGROV1 ovarian it was more than 100 µM; with MCF7 breast, 52.7 µM; in the assay on OVCAR-3 ovarian it was 39.6 µM; in the assay on OVCAR-5 ovarian it was 76.3 µM. Besides, the GI50 was 30.6 µM in the assay on PC-3 prostate, 41.2 µM with SF-268 CNS and 43.9 µM with SW-620 colon. Besides, the TGI was 65.8 µM in the assay on A498 renal; 54.4 µM in the assay with CAKI-1 renal; more than 100 µM in the assay on IGROV1 ovarian; more than 100 µM in the assay with MCF7 breast; more than 100 µM with OVCAR-3 ovarian; more than 100 µM in the assay on OVCAR-5 ovarian. Also, the TGI in the assay with PC-3 prostate, in the assay with SF-268 CNS and in the assay with SW-620 colon was more than 100 µM in each case.

With `C[C@]1(C(=O)O)N[C@H](C(=O)O)CS1`, the GI50 in the assay with CAKI-1 renal is 843 µM; with IGROV1 ovarian, more than 1000 µM; with MCF7 breast it was more than 1000 µM; with OVCAR-3 ovarian, 504 µM; in the assay with OVCAR-5 ovarian it was more than 1000 µM; with PC-3 prostate, more than 1000 µM. Also, the GI50 in the assay with SF-268 CNS, in the assay on SK-MEL-28 melanoma and with SW-620 colon was more than 1000 µM in each case. Besides, the TGI with CAKI-1 renal, in the assay on IGROV1 ovarian, with MCF7 breast, with OVCAR-3 ovarian, with OVCAR-5 ovarian and in the assay with PC-3 prostate was more than 1000 µM each time. Further, the TGI with SF-268 CNS, with SK-MEL-28 melanoma and in the assay on SW-620 colon was more than 1000 µM each time.

For the compound `COc1ccc2c3c(c4ccccc4cc13)C(=O)N(CCN(C)CCN)C2=O`, the GI50 in the assay on A498 renal was 0.393 µM; with CAKI-1 renal, 0.0541 µM; in the assay with MCF7 breast, 0.0133 µM; with OVCAR-3 ovarian, 0.257 µM; in the assay with OVCAR-5 ovarian it was 0.293 µM; in the assay on PC-3 prostate, 0.338 µM. For the same compound, the GI50 with SF-268 CNS was 0.106 µM; in the assay on SK-MEL-28 melanoma it was 1.09 µM; in the assay with SW-620 colon it was 0.0515 µM. The TGI worked out at 1.73 µM with A498 renal; 2.82 µM with CAKI-1 renal; 1.1 µM in the assay on MCF7 breast; 1.19 µM in the assay on OVCAR-3 ovarian; 1.54 µM in the assay with OVCAR-5 ovarian; 1.93 µM with PC-3 prostate. The TGI was found to be 1.49 µM in the assay with SF-268 CNS, 2.48 µM in the assay on SK-MEL-28 melanoma and 1.32 µM in the assay on SW-620 colon.

Take `Cc1ccc(C(=O)/C(=C\c2ccc([N+](=O)[O-])cc2)S(=O)Cc2ccc(F)cc2)cc1` (stereo not drawn): the GI50 in the assay on A498 renal is 2.48 µM; in the assay on CAKI-1 renal, 1.77 µM; with IGROV1 ovarian, 1.5 µM; in the assay with OVCAR-3 ovarian it was 1.57 µM; in the assay on OVCAR-5 ovarian it was 1.96 µM; with PC-3 prostate, 1.52 µM. Besides, the GI50 was 1.69 µM in the assay on SF-268 CNS, 1.82 µM in the assay with SK-MEL-28 melanoma and 1.56 µM in the assay on SW-620 colon. The TGI with A498 renal is 6.04 µM; in the assay with CAKI-1 renal, 3.84 µM; with IGROV1 ovarian, 3.05 µM; in the assay with OVCAR-3 ovarian, 2.96 µM; in the assay with OVCAR-5 ovarian, 3.93 µM; with PC-3 prostate, 3.09 µM. Moreover, the values for the TGI in the assay with SF-268 CNS, with SK-MEL-28 melanoma and with SW-620 colon were 3.36 µM, 3.59 µM and 3.26 µM, respectively.

For the origin of these results see PubChem BioAssay (NCI).
